Measured values as given in publication PMC12691669, “Inhibitors of the 20S proteasome β5 subunit as potent and selective agents against Trichomonas vaginalis” (Antimicrobial Agents and Chemotherapy, 2025).

How the values were obtained:
[1] = molecular target: T. vaginalis Tv20S proteasome β1 subunit (Trichomonas vaginalis, UniProt A2E7Z2); experiment: In vitro proteasome assay, Ac-RYFD-amc substrate; type: biochemical; details: recombinant Tv20S, mean ± SD of three experiments
Description: (§1) The T. vaginalis proteasome was expressed in recombinant form as previously described ([27]). Briefly, Spodoptera frugiperda cells were co-infected with three baculovirus vectors carrying the T. vaginalis genes for the 7 α-subunits, 7 β-subunits, and the Ump-1 chaperone, respectively. The resulting proteasome complex was purified from cell lysates via streptavidin column and size exclusion chromatography and stored at −80°C. Purified human c20S proteasome and recombinant human proteasome activator PA28α ([21]) were obtained from Bio-Techne and stored at −80°C. Dilutions of the test agents were transferred to 384-well plates (Greiner Bio-One) in triplicate wells using an Echo 650 Acoustic Liquid Handler (Beckman Coulter). Six replicate plates were prepared for each compound for testing with three T. vaginalis-optimized substrates and three human-optimized substrates. After dispensing, plates were sealed and stored at −20°C. The following fluorescent substrates and final substrate concentrations were used to assay subunit activities of the T. vaginalis proteasome (Tv20S) ([28]) or the human constitutive proteasome (c20S) ([19], [52]): Ac-RYFD-amc (Genscript) at 100 µM for Tv20S β1 subunit, Ac-FRSR-amc (Genscript) at 20 µM for Tv20S β2 subunit, Ac-GWYL-amc (Genscript) at 20 µM for Tv20S β5 subunit, z-LLE-amc (R&D Systems) at 80 µM for c20S β1 subunit, z-VLR-amc (AdipoGen Life Sciences) at 30 µM for c20S β2 subunit, and suc-LLVY-amc (R&D Systems) at 65 µM for c20S β5 subunit. Substrates and proteasomes were diluted in an assay buffer consisting of HEPES pH 7.5 and 1 mM DTT. For the human proteasome assays, 2 nM c20S was incubated at room temperature with 200 nM PA28α for 1 h to activate the complex prior to addition to the 384-well plates containing the substrate-inhibitor mixtures. […] Both proteasomes were added to the wells at a 1 nM final assay concentration. Fluorescence was measured over 4 h at 360 nm excitation and 460 nm emission on a Biotek Synergy HTX plate reader.

[2] = molecular target: T1, Human c20S proteasome β5 subunit (Homo sapiens, UniProt P20618+P28074); experiment: In vitro proteasome assay, suc-LLVY-amc substrate; type: biochemical; details: purified human c20S with PA28α, mean ± SD; read-out: Human c20S proteasome inhibition of β5 subunit (IC50)
T1 construct: purchased Bio-Techne
Description: as §1

[3] = molecular target: T2, Human c20S proteasome β2 subunit (Homo sapiens, UniProt P49720+Q99436); experiment: In vitro proteasome assay, z-VLR-amc substrate; type: biochemical; details: purified human c20S with PA28α, mean ± SD
T2 construct: purchased Bio-Techne
Description: as §1

[4] = system: T. vaginalis Tv20S proteasome β2 subunit; experiment: In vitro proteasome assay, Ac-FRSR-amc substrate; type: biochemical, Trichomonas vaginalis; details: recombinant Tv20S, mean ± SD of three experiments
Description: as §1

[5] = molecular target: T3, Human c20S proteasome β1 subunit (Homo sapiens, UniProt P28072+Q99436); experiment: In vitro proteasome assay, z-LLE-amc substrate; type: biochemical; details: purified human c20S with PA28α, mean ± SD
T3 construct: purchased Bio-Techne
Description: as §1

[6] = molecular target: T. vaginalis Tv20S proteasome β5 subunit (Trichomonas vaginalis, UniProt A2DD57+A2F716); experiment: biochemical; type: biochemical; details: recombinant Tv20S, mean ± SD of three experiments; read-out: Tv20S proteasome inhibition of β5 subunit (IC50)
Chain of T. vaginalis Tv20S proteasome β5 subunit (A2DD57 entry or part of it): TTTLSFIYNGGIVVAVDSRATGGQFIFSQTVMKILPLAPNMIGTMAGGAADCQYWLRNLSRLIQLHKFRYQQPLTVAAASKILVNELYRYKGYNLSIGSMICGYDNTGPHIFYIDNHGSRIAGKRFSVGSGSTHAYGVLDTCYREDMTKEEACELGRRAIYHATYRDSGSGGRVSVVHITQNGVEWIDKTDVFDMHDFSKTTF
Chain of T. vaginalis Tv20S proteasome β5 subunit (A2F716 entry or part of it): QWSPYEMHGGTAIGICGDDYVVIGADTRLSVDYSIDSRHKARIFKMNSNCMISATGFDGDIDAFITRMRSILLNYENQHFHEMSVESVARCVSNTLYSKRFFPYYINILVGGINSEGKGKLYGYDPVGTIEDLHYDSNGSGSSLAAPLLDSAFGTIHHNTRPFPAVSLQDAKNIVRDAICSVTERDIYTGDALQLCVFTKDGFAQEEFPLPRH
Description: as §1

[7] = system: T. vaginalis strain F1623; experiment: 24 h growth and survival assay (ATP luminescence, GI50); type: cell-based, Trichomonas vaginalis; details: T. vaginalis F1623 vs human HeLa cells
Description: The following T. vaginalis strains were used: F1623 ([50]), G3 (ATCC PRA-98), and LA1 ([25]). […] Drug susceptibility assays were performed as described previously ([23]) with several minor modifications. Briefly, 10 mM stocks of the test compounds in DMSO were serially diluted 1:3 using an Echo 650 Acoustic Liquid Handler (Beckman Coulter). Subsequently, trophozoites (5 × 10^3/well) in TYM modified media were added to the wells in 384-well plates, and cultures were incubated for 24 h at 37°C under anaerobic conditions (AnaeroPack-Anaero System; Remel). For testing in mammalian cells, the following cell lines were used: Human cervical cancer cells HeLa (ATCC CCL-2), non-transformed mouse fibroblast cell line 3T3-L1 (ATCC CL-173), normal monkey kidney epithelial cell line Vero (ATCC CCL-81), and human B lymphoma cells Raji (ATCC CCL-86). Test compounds were serially diluted (1:3) and added to mammalian cell cultures grown in 384-well plates, and cultures were incubated for 48 h at 37°C in 5% CO2, 95% air. Growth and viability of T. vaginalis and mammalian cells were determined with an ATP assay by adding the BacTiter-Glo Microbial Cell Viability Assay reagent (Promega) directly to the wells and measuring ATP-dependent luminescence in a microplate reader. […] Experiments were repeated at least three times, and the mean and SEM of the pGI50 values were calculated.

[8] = system: ubiquitin-conjugated proteins in T. vaginalis F1623; experiment: Immunoblot analysis of ubiquitin labeling; type: cell-based, Trichomonas vaginalis; details: 3 h treatment, 30× GI50
Description: Protein concentrations were measured using the Pierce BCA assay (Thermo Scientific) and adjusted to 10 mg/mL. Proteins were fractionated on SDS-PAGE, transferred onto a nitrocellulose membrane (Bio-Rad), which was blocked with 5% non-fat dry milk in TBST buffer (20 mM Tris base, 150 mM NaCl, 0.05% Tween 20, pH adjusted to 7.6 with HCl) for 1 h and probed with primary anti-ubiquitin antibody (Proteintech, 10201-2-AP) at a 1:2,000 dilution, followed by incubation with anti-rabbit horseradish peroxidase (HRP)-conjugated IgG (Jackson laboratory) at a 1:5,000 dilution. HRP labeling was visualized by chemiluminescence (Immobilon, Millipore).

[9] = system: β5 proteasome subunit in live T. vaginalis F1623 (compared to human HeLa cells); experiment: Fluorescence gel assay of proteasome subunit targeting in live cells; type: cell-based, Trichomonas vaginalis; details: 3 h incubation, gel densitometry, T. vaginalis F1623 vs HeLa
Description: T. vaginalis F1623 and human HeLa cells were incubated for 3 h with proteasome inhibitors at a range of concentrations or with solvent as a control. Cells were lysed by three consecutive freeze/thaw cycles in a buffer of 50 mM HEPES, pH 7.5, 10 µM E64, 100 µM AEBSF, 10 µM RR11a, 1 µM Pepstatin, and 1 mM DTT. Protein concentrations were measured with the Pierce BCA assay (Thermo Scientific) and adjusted to 5 mg/mL. Samples were incubated with 2 µM Me4BodipyFL-Ahx3Leu3VS ([53]) at 2.5 mg/mL protein concentration for 24 h at 37°C. […] Band intensities were quantified using ImageJ (NIH). Each peak corresponding to a protein band was selected, and the area under the curve was determined after subtraction of the intensity in an adjacent area outside of the respective band. For closely spaced bands, the midpoint between the peaks of two bands was used to separate the areas. Band intensities were normalized to the respective controls, not incubated with inhibitors.

Chain of T. vaginalis Tv20S proteasome β1 subunit (A2E7Z2 entry or part of it): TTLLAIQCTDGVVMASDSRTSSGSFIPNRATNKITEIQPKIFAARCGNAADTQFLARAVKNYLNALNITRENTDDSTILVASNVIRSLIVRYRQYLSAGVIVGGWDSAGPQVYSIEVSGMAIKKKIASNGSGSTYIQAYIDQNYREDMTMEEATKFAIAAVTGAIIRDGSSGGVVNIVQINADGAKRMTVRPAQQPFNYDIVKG

Structure (SMILES) | Tv20S proteasome inhibition of β1 subunit (IC50) [1] | IC50 [2] [nM] | IC50 ([3]; read-out: Human c20S proteasome inhibition of β2 subunit (IC50)) [nM] | Tv20S proteasome inhibition of β2 subunit (IC50) [4] | IC50 ([5]; read-out: Human c20S proteasome inhibition of β1 subunit (IC50)) [nM] | IC50 [6] [nM] | Human c20S proteasome inhibition of β2 subunit (IC50) [3] | Human c20S proteasome inhibition of β1 subunit (IC50) [5] | SI (ratio of GI50 in HeLa cells over GI50 in T. vaginalis) [7] | abundance of ubiquitin-labeled proteins [8] | β5 inactivated in T. vaginalis at lower concentrations compared to human cells [9] [fold]
CCCCCC(=O)NC(CC(=O)NC(CCCC)C(=O)NC(Cc1ccccc1)C(=O)C1(C)CO1)CC(=O)OC(C)(C)C (stereo not shown) [compound 8] | Activation | 4100 |  | No inhibition |  | 43.7 ± 12.3 | No inhibition | No inhibition | 218.8 | accumulation of ubiquitinated proteins | 22
COc1ccc(CC(NC(=O)C(C)NC(=O)OCc2ccccc2)C(=O)NC(Cc2ccccc2)C(=O)C2(C)CO2)cc1 (stereo not shown) [compound 12] | Activation | 379 ± 61.2 |  | No inhibition |  | 20.6 ± 5.39 | No inhibition | No inhibition | 63.1 | accumulation of ubiquitinated proteins | 12
COc1ccc(C[C@H](NC(=O)[C@H](C)NC(=O)C2=C(C)c3ccccc3C2)C(=O)N[C@@H](Cc2ccccc2)C(=O)[C@]2(C)CO2)cc1 [compound 22] | Activation | 84.8 ± 20.2 |  | No inhibition |  | 60.5 ± 8.1 | No inhibition | No inhibition | 16.6 |  | 

Stronger by IC50 [2], values ahead:

Tv20S proteasome inhibition of β1 subunit (IC50) [1] | IC50 [2] [nM] | IC50 ([3]; read-out: Human c20S proteasome inhibition of β2 subunit (IC50)) [nM] | Tv20S proteasome inhibition of β2 subunit (IC50) [4] | IC50 ([5]; read-out: Human c20S proteasome inhibition of β1 subunit (IC50)) [nM] | IC50 [6] [nM] | Human c20S proteasome inhibition of β2 subunit (IC50) [3] | Human c20S proteasome inhibition of β1 subunit (IC50) [5] | Structure (SMILES) | SI (ratio of GI50 in HeLa cells over GI50 in T. vaginalis) [7] | abundance of ubiquitin-labeled proteins [8] | β5 inactivated in T. vaginalis at lower concentrations compared to human cells [9] [fold]
Activation | 45.3 ± 4.67 |  | No inhibition |  | 4.29 ± 2.23 | No inhibition | No inhibition | COc1ccc(CC(NC(=O)C(C)NC(=O)OCc2ccccc2)C(=O)NC(Cc2ccccc2)C(=O)C2(C)CO2)cc1 (stereo not shown) [compound 11] | 51.3 |  | 
Activation | 39.4 ± 4.76 |  | No inhibition |  | 44.1 ± 6.71 | No inhibition | No inhibition | COc1ccc(C[C@H](NC(=O)[C@H](C)NC(=O)C2=C(C)c3ccccc3C2)C(=O)N[C@@H](Cc2ccc(-c3ccccc3)cc2)C(=O)[C@@]2(C)CO2)cc1 [compound 20] | 16.2 |  | 
Activation | 11 ± 1.12 | 1690 ± 410 | No inhibition | 19700 ± 8580 | 8.21 ± 1.16 |  |  | COc1ccc(C[C@H](NC(=O)[C@H](C)NC(=O)C2=C(C)c3ccccc3C2)C(=O)N[C@@H](Cc2ccccc2)C(=O)[C@@]2(C)CO2)cc1 [compound 4] | 21.4 |  | 
